Test results taken from patent US11103564B2, “Compositions for the inhibition of Giardia lamblia” (INSTITUT NATIONAL DE LA RECHERCHE AGRONOMIQUE, priority 2014, dated 2021).
Like-named read-outs stand apart in the source and are kept apart here.

Legend:
[1] = test system: Giardia trophozoite cultures; test: Screening of lactobacilli strain supernatants for G. lamblia growth inhibition; assay type: cell-based, Giardia lamblia; conditions: supernatant, 24 h at 37° C., with bovine bile 0.6 g/L
Procedure: The inhibitory effect on G. lamblia growth of different lactobacilli strains was screened (cf. table 5). Bacterial supernatant was co-incubated for 24 h at 37° C. with Giardia trophozoite cultures (triplicates), with or without bovine bile (0.6 g/L). […] Table 5 indicates the corresponding internal and official references of the bacterial strains, and bibliographic references.

G. lamblia trophozoites [2] = test: In vitro G. lamblia growth inhibition assay; assay type: cell-based, Giardia lamblia; conditions: for IC50: KM-FCS; for inhibitory activity on G. lamblia growth: KM-FCS culture medium, without BSH
G. lamblia trophozoites [3] = test: Effect of recombinant LjLa1 BSH on Giardia trophozoites cultures; assay type: cell-based, Giardia lamblia
[4] = assay type: biochemical
[5] = BSH activity on taurodeoxycholic / glycodeoxycholic LB agar; assay type: biochemical; conditions: taurodeoxycholic (0.3%) and glycodeoxycholic (0.3%) LB agar, 48 h at 37° C.
G. lamblia WB clone C6 = test: In vivo effect of BSH-47 against G. lamblia in neonatal mice; conditions: daily gavage day 10 to 15, vs PBS
Procedure: FIG. 13: G. lamblia trophozoites count in the small intestine. Mice were challenged with the trophozoites of G. lamblia WB clone C6 (10^5 trophozoites per animal) at day 10 Animals were treated either with PBS or BSH-47 at 1 μg/ml (0.5 μg per mice), 10 μg/ml (5 μg per mice) or 100 μg/ml (50μg/mice) by daily intragastric gavage until day 15 (n=10 to 11/group). Values are mean±SEM; p<0.05.
Solutions of recombinant BSH-47 solutions (1 μg/ml, 10 μg/ml and 100 μg/ml diluted in NaHCO3 16.4%) were thawed and daily administered by intragastric gavage to neonatal mice (dose were respectively […] per mice) from day 10 to day 15 (day of sacrifice). Control animals received PBS instead of BSH.

[6] = Giardia duodenalis, absence of LjLa1sn, trophozoites growth inhibition, read-out: IC50 +/− SD, with culture medium only
[7] = Giardia duodenalis, presence of LjLa1sn, read-out: IC50 +/− SD, with bacterial spent culture medium
[8] = absence of LjLa1sn, trophozoites growth inhibition, read-out: IC50 +/− SD, with culture medium only
[9] = presence of LjLa1sn, read-out: IC50 +/− SD, with bacterial spent culture medium
[10] = 0.0001 μg/ml to 10 μg/ml, presence of bovine bile (0.06 g/L)

Molecule: Lactobacillus acidophilus
- inhibitory effect on G. lamblia growth [1]: potent inhibitors

Molecule: C[C@H](CCC(=O)NCC(=O)O)[C@H]1CC[C@H]2[C@@H]3[C@H](O)C[C@@H]4C[C@H](O)CC[C@]4(C)[C@H]3CC[C@]12C [GCDC, Glycochenodesoxycholate]
- IC50 (G. lamblia trophozoites [2]; [6]): > 400 µM
- IC50 (G. lamblia trophozoites [2]; [7]): 110 µM
- inhibitory activity on G. lamblia growth (G. lamblia trophozoites [2]): no inhibitory activity

Molecule: Desoxycholate [DC]
- IC50 (G. lamblia trophozoites [2]; [8]): 132 µM
- IC50 (G. lamblia trophozoites [2]; [9]): 117 µM

Molecule: C[C@H](CCC(=O)NCC(=O)O)[C@H]1CC[C@H]2[C@@H]3[C@H](O)C[C@@H]4C[C@H](O)CC[C@]4(C)[C@H]3C[C@H](O)[C@]12C [GC, Glycocholate]
- IC50 (G. lamblia trophozoites [2]; [6]): > 400 µM
- IC50 (G. lamblia trophozoites [2]; [7]): > 400 µM

Molecule: C[C@H](CCC(=O)O)[C@H]1CC[C@H]2[C@@H]3[C@H](O)C[C@@H]4C[C@H](O)CC[C@]4(C)[C@H]3C[C@H](O)[C@]12C [C, Cholate]
- IC50 (G. lamblia trophozoites [2]; [8]): > 400 µM
- IC50 (G. lamblia trophozoites [2]; [9]): > 400 µM

Molecule: C[C@H](CCC(=O)O)[C@H]1CC[C@H]2[C@@H]3[C@H](O)C[C@@H]4C[C@H](O)CC[C@]4(C)[C@H]3CC[C@]12C [CDC, Chenodesoxycholate]
- IC50 (G. lamblia trophozoites [2]; [6]): 147 µM
- IC50 (G. lamblia trophozoites [2]; [7]): 118 µM

Molecule: Lactobacillus reuteri
- inhibitory effect on G. lamblia growth [1]: potent inhibitors

Molecule: C[C@H](CCC(=O)NCC(=O)O)[C@H]1CC[C@H]2[C@@H]3CC[C@@H]4C[C@H](O)CC[C@]4(C)[C@H]3C[C@H](O)[C@]12C [GDC, Glycodesoxycholate]
- IC50 (G. lamblia trophozoites [2]; [6]): > 400 µM
- IC50 (G. lamblia trophozoites [2]; [7]): 104 µM
- inhibitory activity on G. lamblia growth (G. lamblia trophozoites [2]): no inhibitory activity

Molecule: CC(=O)O[C@H]1C[C@@]2(C)[C@@H](C[C@@H](O)[C@H]3[C@@]4(C)CC[C@@H](O)[C@@H](C)[C@@H]4CC[C@@]32C)/C1=C(\CCC=C(C)C)C(=O)O [FA, Fusidic acid]
- IC50 (G. lamblia trophozoites [2]; [6]): 26 µM

Molecule: C[C@H](CCC(=O)NCCS(=O)(=O)O)[C@H]1CC[C@H]2[C@@H]3[C@H](O)C[C@@H]4C[C@H](O)CC[C@]4(C)[C@H]3CC[C@]12C [TCDC, Taurochenodesoxycholate]
- IC50 (G. lamblia trophozoites [2]; [6]): > 400 µM
- IC50 (G. lamblia trophozoites [2]; [7]): 115 µM
- inhibitory activity on G. lamblia growth (G. lamblia trophozoites [2]): no inhibitory activity

Molecule: C[C@H](CCC(=O)NCCS(=O)(=O)O)[C@H]1CC[C@H]2[C@@H]3CC[C@@H]4C[C@H](O)CC[C@]4(C)[C@H]3C[C@H](O)[C@]12C [TDC, Taurodesoxycholate]
- inhibitory activity on G. lamblia growth (G. lamblia trophozoites [2]): no inhibitory activity
- IC50 (G. lamblia trophozoites [2]; [8]): > 400 µM
- IC50 (G. lamblia trophozoites [2]; [9]): 79 µM

B1: BSH-56: recombinant L. johnsonii La1 bile-salt hydrolase LJ0056 produced as BSH-47 (protein)
chain: MCTGLRFTDDQGNLYFGRNLDVGQDYGEGVIITPRNYPLPYKFLDNTTTKKAVIGMGIVVDGYPSYFDCYNEDGLGIAGLNFPHFAKFSDGPIDGKINLASYEIMLWVTQNFTHVSEVKEALKNVNLVNEAINTSFAVAPLHWIISDSDEAIIVEVSKQYGMKVFDDKVGVLTNSPDFNWHLTNLGNYTGLNPHDATAQSWNGQKVAPWGVGTGSLGLPGDSIPADRFVKAAYLNVNYPTAKGEKANVAKFFNILKSVAMIKGSVVNDQGKDEYTVYTACYSSGSKTYYCNFEDDFELKTYKLDDHTMNSTSLVTY
modifications: Lactobacillus johnsonii BSH-56
- inhibitory effect on G. lamblia trophozoites (G. lamblia trophozoites [3]; [10]): strong inhibitory effects
- inhibitory effect on G. lamblia trophozoites (G. lamblia trophozoites [3]; without bovine bile): no inhibitory effect
- Specific activity ([4]; glycine release): 0.536 μmole of glycine/5 min at 37°
- Specific activity ([4]; taurine release): 2.604 μmole taurine/5 min at 37° C./

B2: BSH-47: recombinant L. johnsonii La1 bile-salt hydrolase LJ1147 produced in E. coli, His-Tag purified (protein)
chain: MCTSILYSPKDNYFGRNLDYEIAYGQKVVITPRNYQLNYRHLPTQDTHYAMIGVSVVANDYPLYCDAINEKGLGIAGLNFTGPGKYFSVDESKKNVTSFELIPYLLSNCETIEDVKKLLSETNITDESFSKDLPVTTLHWLMGDKSGKSIVIESTETGLHVYDNPVNTLTNNPVFPAQVETLANFASVSPAQPKNTLVPNADINLYSRGLGTHHLPGGTDSNSRFIKASFVLAHSPKGNDEVENVTNFFHVLHSVEQAKGTDEVEDNVFEFTMYSDCMNLDKGILYFTTYDNNQINAVDMNNEDLGTSDLITYELFKDQAIKFEN
modifications: His-tag; Lactobacillus johnsonii BSH-47
notes: recombinant L. johnsonii La1 bile-salt hydrolase LJ1147 produced in E. coli, His-Tag purified
- substrate specificity on agar [5]: taurospecific
- parasite load in the small intestine (G. lamblia WB clone C6; 100 μg/ml group): significant reduction
- trophozoites load in the small intestine (G. lamblia WB clone C6; all groups: 1, 10 and 100 μg/ml): reduction in trophozoites load
- inhibitory effect on G. lamblia trophozoites (G. lamblia trophozoites [3]; [10]): strong inhibitory effects
- effect on Giardia trophozoites cultures (G. lamblia trophozoites [3]; 0.96 U, with bovine bile (0.06 g/L)): exhibits an inhibiting effect
- inhibitory effect on G. lamblia trophozoites (G. lamblia trophozoites [3]; without bovine bile): no inhibitory effect
- Specific activity ([4]; glycine release): 0.066 μmole of glycine/5 min at 37°
- Specific activity ([4]; taurine release): 0.717 μmole taurine/5 min at 37° C./
